The results in this text go back to patent US11896603B2, “Oligosaccharide as therapeutic agent for alcohol associated liver disease” (The Regents of the University of California, priority 2020, dated 2024).

The test system of one series is E. faecalis. The series can be described thus: Fecal E. faecalis and cytolysin by qPCR in chronic-binge ethanol diet-fed mice. Type of series: in vivo, mouse. The conditions noted are these: Fut2^−/− mice. The method, then: In the 2′-fucosyllactose (2′-FL; a gift from Jennewein Biotechnologie GmbH, Germany) supplementation experiments we used a chronic-binge ethanol diet (NIAAA model). Fut2^−/− mice (10-11 weeks, male and female) were fed with Lieber-DeCarli diet with caloric intake from ethanol 0% on days 1-5 and 36% of total calories from day 6 to day 16. At day 16 in the early morning, mice were gavaged with a single dose of ethanol (5 g/kg body weight) and harvested 9 hours later. In the 2′-FL treated groups 2′-FL was added in the ethanol diet at a final concentration of 2 mg/mL and given continuously during the study period.
Reverse transcription and real-time quantitative PCR. For reverse transcription qPCR, RNA was extracted from mouse liver, and cDNAs were generated as described. DNA from mouse feces was extracted using QIAamp Fast DNA Stool kit (Qiagen, 51604). Quantitative PCR was performed with iTaq universal SYBR Green Supermix (Bio-Rad, 1725124) using a StepOnePlus thermocycler real-time PCR system. Primer sequences for mouse genes were obtained from the NIH qPrimerDepot. The values of mouse genes were normalized to 18S, while bacterial genes were normalized to 16S.
For orientation: Real-time PCR tracks product formation cycle by cycle.

A further series has as its system Fut2^−/− mice. The series can be described thus: 2′-FL supplementation in chronic-binge ethanol diet (NIAAA model), ethanol-induced liver disease. Type of series: in vivo, mouse. The method, then:
In the 2′-fucosyllactose (2′-FL; a gift from Jennewein Biotechnologie GmbH, Germany) supplementation experiments we used a chronic-binge ethanol diet (NIAAA model). Fut2^−/− mice (10-11 weeks, male and female) were fed with Lieber-DeCarli diet with caloric intake from ethanol 0% on days 1-5 and 36% of total calories from day 6 to day 16. At day 16 in the early morning, mice were gavaged with a single dose of ethanol (5 g/kg body weight) and harvested 9 hours later. In the 2′-FL treated groups 2′-FL was added in the ethanol diet at a final concentration of 2 mg/mL and given continuously during the study period. Formalin-fixed and paraffin-embedded mouse livers were stained with hematoxylin-eosin (Leica Biosystems Inc.) using standard staining protocols. Frozen liver sections were stained with Oil Red O (Sigma-Aldrich, 00625). Biochemical assays. Levels of plasma alanine aminotransferase (ALT) were measured using infinity ALT kit (Thermo Scientific, TR71121). Triglyceride levels were measured using the Triglyceride Liquid Reagents Kit (Pointe Scientific, 51604). Reverse transcription and real-time quantitative PCR. For reverse transcription qPCR, RNA was extracted from mouse liver, and cDNAs were generated as described. DNA from mouse feces was extracted using QIAamp Fast DNA Stool kit (Qiagen, 51604). Quantitative PCR was performed with iTaq universal SYBR Green Supermix (Bio-Rad, 1725124) using a StepOnePlus thermocycler real-time PCR system. Primer sequences for mouse genes were obtained from the NIH qPrimerDepot. The values of mouse genes were normalized to 18S, while bacterial genes were normalized to 16S.

Series [1] has as its system cytolysin positive strain of E. faecalis. In words: Enterococcus faecalis cultures, growth by optical density at 600 nm. Type of series: cell-based. Particulars: BHI media with 0, 0.25, 0.5, 1, 2 or 20 mg/mL of 2′-FL, 6 h, sampling every 30 min (FIG. 5G). How it is done:
Enterococcus faecalis cultures. A cytolysin positive strain of E. faecalis, which was isolated from feces of an ethanol-fed Atp4a^s1/s1 mouse, was cultured in BHI media with 0, 0.25, 0.5, 1, 2 or 20 mg/mL of 2′-FL in triplicate for each concentration. Sampling was taken at 30 min intervals during the course of 6 h. Cell growth was determined by measuring the optical density at 600 nm for each time-point.

As for `CC1O[C@@H](OC2[C@H](O[C@@H]3C(CO)OC(O)C(O)[C@H]3O)OC(CO)[C@H](O)[C@@H]2O)[C@@H](O)C(O)[C@@H]1O` (stereo partly shown) [2′-FL, 2′-fucosyllactose], the “Intestinal amount of E. faecalis (fecal E. faecalis, qPCR)” value in the series on E. faecalis (chronic-binge ethanol diet with or without 2′-FL for 2 weeks (FIG. 5E)) is “decreased”. For the same compound, the “Fecal cytolysin (qPCR)” value in the series with E. faecalis (chronic-binge ethanol diet with or without 2′-FL for 2 weeks (FIG. 5F)) is “decreased”. In addition, in the series with Fut2^−/− mice (2′-FL 2 mg/mL in diet for 2 weeks (FIG. 4G-4I)), the “Metabolism of ethanol (plasma ethanol, hepatic Adh1 mRNA, hepatic Cyp2e1 mRNA)” value is recorded as “without affecting”. In addition, the “Plasma alanine aminotransferase (ALT)” value in the series with Fut2^−/− mice (2′-FL 2 mg/mL in diet for 2 weeks, compared with ethanol diet alone (FIG. 4A)) is given as “lower”. The Hepatic triglyceride result in the series with Fut2^−/− mice (2′-FL 2 mg/mL in diet for 2 weeks, compared with ethanol diet alone (FIG. 4B)) is recorded as “lower”. For the same compound, the “Liver histopathology (H&E-stained liver tissue)” value in the series with Fut2^−/− mice (2′-FL 2 mg/mL in diet for 2 weeks, compared with ethanol diet alone (FIG. 4C)) is “improvement”. The “Hepatic Cxcl1 mRNA level” value in the series on Fut2^−/− mice (2′-FL 2 mg/mL in diet for 2 weeks, compared with ethanol diet alone (FIG. 4D)) is given as “decreased”. The “Hepatic Cxcl2 mRNA level” value in the series with Fut2^−/− mice (2′-FL 2 mg/mL in diet for 2 weeks, compared with ethanol diet alone (FIG. 4E)) is “decreased”. The “Oil Red O staining of liver tissue” value in the series on Fut2^−/− mice (2′-FL 2 mg/mL in diet for 2 weeks, compared with ethanol diet alone (FIG. 4F)) is “improvement”. For the same compound, the “E. faecalis growth (OD600)” value in series [1] was “not affected”.
